According to ChEMBL document CHEMBL1201862, “PubChem BioAssay data set” (2004):
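48-hour exposure; five concentrations; linearly interpolated endpoints. Here, GI50 denotes the concentration required for 50% inhibition of growth.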 Activity calls are given as the source filed them. Cut-off read from the data, not from the text of the source: active = GI50 up to about 1.1 µM and inactive = higher.

Legend:
Test in all cases: NCI tumour cell line growth inhibition, 48 h
A549 = system: A549
ACHN = system: ACHN
CAKI-1 = system: CAKI-1
DLD-1 = system: DLD-1
EKVX = system: EKVX
HCC 2998 = system: HCC 2998
HOP-62 = system: HOP-62
HT-29 = system: HT-29
K562 = system: K562
MOLT-4 = system: MOLT-4
RXF 393 = system: RXF 393
SK-OV-3 = system: SK-OV-3
U-251 = system: U-251
UACC-257 = system: UACC-257
TK-10 = system: TK-10

Measured: GI50

Cc1cc(N(CCC#N)S(=O)(=O)c2ccccc2)ccc1C=O
inactive: A549 > 100 µM | ACHN > 100 µM | CAKI-1 > 100 µM | DLD-1 > 100 µM | EKVX > 100 µM | HCC 2998 > 100 µM | HOP-62 > 100 µM | HT-29 > 100 µM | K562 > 100 µM | MOLT-4 > 100 µM | RXF 393 > 100 µM | SK-OV-3 > 100 µM | U-251 > 100 µM | UACC-257 > 100 µM

CN(C)CC1(C)CC/C(=C\c2ccc3c(c2)OCO3)C1=O (stereo not drawn)
inactive: A549 > 100 µM | ACHN > 100 µM | CAKI-1 6.58 µM | DLD-1 > 100 µM | HCC 2998 > 100 µM | HOP-62 > 100 µM | HT-29 > 100 µM | K562 53.6 µM | MOLT-4 96.4 µM | RXF 393 > 100 µM | TK-10 > 100 µM | U-251 > 100 µM | UACC-257 > 100 µM

CC(C)(C)NCC(COc1ccc([N+](=O)[O-])cc1)OP(c1ccccc1)c1ccccc1 (stereo not drawn)
inactive: A549 40.6 µM | ACHN 38.7 µM | CAKI-1 28.8 µM | DLD-1 27.8 µM | EKVX 53.1 µM | HCC 2998 42.4 µM | HOP-62 > 100 µM | HT-29 27.7 µM | K562 32.7 µM | MOLT-4 18.9 µM | RXF 393 30.3 µM | SK-OV-3 60.5 µM | TK-10 43.9 µM | U-251 41.5 µM | UACC-257 44 µM

NC(N)=NN/C(=C1/N=c2ccc([N+](=O)[O-])cc2=NC1=O)C(O)c1ccco1 (stereo not drawn)
inactive: A549 > 100 µM | ACHN > 100 µM | CAKI-1 > 100 µM | DLD-1 > 100 µM | EKVX > 100 µM | HCC 2998 > 100 µM | HOP-62 > 100 µM | HT-29 > 100 µM | K562 54.3 µM | MOLT-4 > 100 µM | RXF 393 > 100 µM | SK-OV-3 > 100 µM | TK-10 > 100 µM | U-251 > 100 µM | UACC-257 > 100 µM

CNC(C)(C)Cc1ccc(Cl)cc1
inactive: A549 > 100 µM | ACHN > 100 µM | CAKI-1 > 100 µM | DLD-1 > 100 µM | EKVX > 100 µM | HCC 2998 > 100 µM | HOP-62 > 100 µM | HT-29 > 100 µM | K562 > 100 µM | MOLT-4 > 100 µM | RXF 393 > 100 µM | SK-OV-3 > 100 µM | TK-10 > 100 µM | U-251 > 100 µM | UACC-257 > 100 µM

CN1NC(c2ccccc2)=C(C#N)C(=O)CC1c1ccc(F)cc1 (stereo not drawn)
inactive: A549 > 100 µM | ACHN > 100 µM | CAKI-1 > 100 µM | DLD-1 > 100 µM | HCC 2998 > 100 µM | HT-29 > 100 µM | MOLT-4 > 100 µM | RXF 393 > 100 µM | SK-OV-3 > 100 µM | TK-10 > 100 µM | U-251 > 100 µM | UACC-257 > 100 µM

Cc1[nH]c2ccccc2c1C1Cc2ccccc2N1C(=O)/C(Cl)=C/c1ccccc1 (stereo not drawn)
inactive: A549 88.1 µM | ACHN 98.9 µM | CAKI-1 50.6 µM | DLD-1 74.3 µM | EKVX > 48.9 µM | HCC 2998 > 100 µM | HOP-62 > 100 µM | HT-29 > 100 µM | K562 70.3 µM | MOLT-4 15.2 µM | RXF 393 7.83 µM | SK-OV-3 > 100 µM | TK-10 > 73.3 µM | U-251 > 100 µM | UACC-257 > 100 µM

CSc1nc2c(nc(N)n2C2OC(COC(C)=O)C(OC(C)=O)C(OC(C)=O)C2OC(C)=O)c(=O)n1C (stereo not drawn)
inactive: A549 > 100 µM | ACHN > 100 µM | CAKI-1 > 100 µM | DLD-1 > 100 µM | EKVX > 100 µM | HCC 2998 > 100 µM | HOP-62 > 100 µM | HT-29 > 100 µM | K562 > 100 µM | MOLT-4 > 100 µM | RXF 393 > 100 µM | SK-OV-3 > 100 µM | TK-10 > 100 µM | U-251 > 100 µM | UACC-257 > 100 µM

CC(=O)OC1COC(n2c(=S)n(-c3ccc(C)cc3)c(=O)c3ccccc32)C(OC(C)=O)C1OC(C)=O (stereo not drawn)
inactive: A549 > 100 µM | ACHN > 100 µM | CAKI-1 > 100 µM | DLD-1 > 100 µM | EKVX > 100 µM | HCC 2998 > 100 µM | HOP-62 > 100 µM | HT-29 > 100 µM | MOLT-4 > 100 µM | RXF 393 67.3 µM | SK-OV-3 > 100 µM | U-251 > 100 µM | UACC-257 > 100 µM

Cc1[nH]c2ccccc2c1-c1n[nH]c(=O)c2ccccc12
inactive: A549 24.6 µM | ACHN 25.7 µM | CAKI-1 13.4 µM | DLD-1 15.9 µM | EKVX 17.9 µM | HCC 2998 30.4 µM | HOP-62 6.56 µM | HT-29 24.1 µM | K562 5.25 µM | MOLT-4 20.5 µM | RXF 393 12.9 µM | SK-OV-3 25.1 µM | TK-10 37.1 µM | U-251 31.5 µM | UACC-257 25.1 µM

CC(=O)OCCOCNC(=S)N/N=C/c1cc(Br)cs1
inactive: A549 > 100 µM | ACHN > 100 µM | DLD-1 > 100 µM | EKVX > 100 µM | HCC 2998 > 100 µM | HOP-62 > 100 µM | HT-29 > 100 µM | K562 > 100 µM | MOLT-4 > 100 µM | RXF 393 > 100 µM | SK-OV-3 > 100 µM | TK-10 > 100 µM | U-251 > 100 µM | UACC-257 > 100 µM

S=C1ON=C(c2ccccc2)/C1=C/Nc1ccccc1
inactive: A549 > 100 µM | ACHN 47.1 µM | CAKI-1 > 100 µM | DLD-1 37.2 µM | EKVX > 100 µM | HCC 2998 > 100 µM | HT-29 > 100 µM | K562 9.98 µM | MOLT-4 > 100 µM | RXF 393 94.8 µM | SK-OV-3 > 100 µM | TK-10 > 100 µM | U-251 > 100 µM | UACC-257 > 100 µM

CCOC(=O)/C=C1\CCCC12OCCO2
inactive: A549 > 100 µM | ACHN > 100 µM | CAKI-1 > 100 µM | DLD-1 89.3 µM | HCC 2998 > 100 µM | HOP-62 > 100 µM | K562 > 100 µM | MOLT-4 30.5 µM | RXF 393 > 100 µM | SK-OV-3 > 100 µM | TK-10 > 100 µM | U-251 > 100 µM | UACC-257 > 100 µM

COc1cc(/C=C2/C(=O)N(C(=O)OCC(C)C)C(Cc3cc(OC)c(OC)c(C)c3OC)C(=O)N2Cc2ccccc2)c(OC)c(C)c1OC (stereo not drawn)
inactive: A549 > 100 µM | ACHN > 100 µM | CAKI-1 > 100 µM | DLD-1 84.3 µM | EKVX 72.1 µM | HCC 2998 > 100 µM | HOP-62 54.7 µM | HT-29 > 100 µM | K562 19.2 µM | MOLT-4 7.35 µM | RXF 393 > 100 µM | SK-OV-3 > 100 µM | TK-10 > 100 µM | U-251 > 100 µM | UACC-257 15.9 µM
